# Source: PubChem BioAssay (NCI)
# Where “and” joins values, the source holds several entries; their conditions need not be identical. Identical values can stand only once.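 Grown in 96-well plates, cells were treated for 48 hours with each compound at five concentrations. Insufficient inhibition: endpoint recorded as highest concentration tested. GI50 = concentration required for 50% inhibition of growth. TGI: total growth inhibition.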
# What was measured:
# Assay in all cases: NCI tumour cell line growth inhibition, 48 h
# HL-60(TB) leukemia = tested on: HL-60(TB) leukemia
# HS 578T breast = tested on: HS 578T breast
# K-562 leukemia = tested on: K-562 leukemia
# KM20L2 colon = tested on: KM20L2 colon
# LXFL 529 NSCLC = tested on: LXFL 529 NSCLC
# MDA-MB-435 = tested on: MDA-MB-435
# OVCAR-8 ovarian = tested on: OVCAR-8 ovarian
# SF-539 CNS = tested on: SF-539 CNS
# SR leukemia = tested on: SR leukemia
# UO-31 renal = tested on: UO-31 renal
SMILES,GI50 (HL-60(TB) leukemia) [nM],TGI (HL-60(TB) leukemia) [nM],GI50 (HS 578T breast) [nM],TGI (HS 578T breast) [nM],GI50 (K-562 leukemia) [nM],TGI (K-562 leukemia) [nM],GI50 (KM20L2 colon) [nM],TGI (KM20L2 colon) [nM],GI50 (LXFL 529 NSCLC) [nM],TGI (LXFL 529 NSCLC) [nM],GI50 (MDA-MB-435) [nM],TGI (MDA-MB-435) [nM],GI50 (OVCAR-8 ovarian) [nM],TGI (OVCAR-8 ovarian),GI50 (SF-539 CNS) [nM],TGI (SF-539 CNS) [nM],GI50 (SR leukemia) [nM],TGI (SR leukemia) [nM],GI50 (UO-31 renal) [nM],TGI (UO-31 renal) [nM]
CCN(CC)C(=S)[S][Bi]([S]C(=S)N(CC)CC)[S]C(=S)N(CC)CC,127,19900,2640,5870,123,> 31600,128,1230,142,275,984,2200,284,755 nM,195,436,35.3,23400,216,468
C/C=C(/C)C(=O)O[C@H]1[C@H](O)CC(c2ccc3c(c2O)C(O)=C2C(=O)C4(OC)C(O)=C(C(N)=O)C(=O)[C@H](CC(=O)c5ccccc5O)C4CC2[C@@]3(C)OC)O[C@@H]1C (stereo partly drawn),–,–,–,–,–,10700,–,62.3,–,973,–,1640,–,1670 nM and 713 nM,–,101,–,355,–,2340
CCCCCCCCCCCCCCCCCC(=O)Nc1ccn(C2OC(CO)C(O)C2O)c(=O)n1 (stereo not drawn),–,41800,–,> 100000,–,> 100000,–,> 100000,–,> 100000,–,> 100000,–,> 84800 nM,–,> 100000,–,56400,–,> 79300
O=C(NC(=O)c1ccccc1[N+](=O)[O-])Nc1ccc(Oc2ncc(Cl)cn2)c(C(F)(F)F)c1,–,125,–,2450,–,> 100000,–,< 23.1,–,> 43900,–,< 12.3,–,9710 nM,–,489,–,> 100000,–,35200
